According to article PMC5707067, “Farnesyl phenolic enantiomers as natural MTH1 inhibitors from Ganoderma sinense” (Oncotarget, 2017):

Key:
[1] = test system: MTH1 siRNA transfected SW620 cells; experiment: CCK8 growth assay in MTH1 siRNA transfected cells; assay type: cell-based, human
Experimental: In order to study whether the cytotoxicity of the farnesyl phenolic compounds was due to the inhibition of MTH1, the expression of endogenous MTH1 was knocked down in cancer cells. SW620 cell lines were transfected with MTH1 siRNA (#1, #2 and #3), [2] while the control was transfected with non-targeting siRNA (NT). The expression levels of MTH1 were measured by Western blot assay (Figure 6A and 6B), both siRNA #2 and #3 knocked down expressions of MTH1 in SW620 cells. The effects of compound 1 on the growth of MTH1 siRNA (#2 and #3) and non-targeting siRNA transfected cells were assessed by CCK8 assay.
Figure 6 The specific binding of compound 1 to the MTH1 protein leads to cell growth inhibition (A, B) Western blot analysis and optical density analysis for the expression of MTH1 for the siRNA transfected cells. MTH1 siRNA #2 and #3 were both knocked down in SW620 cells compared with the non-target siRNA (NT). (C) The effects of compound 1 on the growth of MTH1 siRNA (#2 and #3) and non-targeting siRNA transfected cells were assessed by CCK8 assay. […] (D) The effects of compounds 1 on normal tissue cell lines [human hepatic cells (Lo2), African green monkey kidney vero cells (Vero)]. (E, F) Cellular thermal shift assay (CETSA) confirmed the binding capacity of compound 1 with MTH1 at the cellular level. […]

SW620 cells = experiment: Apoptosis analysis (Annexin V/PI flow cytometry); assay type: cell-based, human; details: 24 hours, control group 12.03%
Experimental: The apoptosis of cells induced by compounds was further investigated. SW620 cells were pretreated with series concentration of compound 1 for 24 hours. The number of apoptosis cells was quantified by flow cytometry.
Figure 5 Compound 1 induced DNA damage and hindered the replication of DNA in cancer cells causing cell apoptosis (A) SW620 cells were treated with 0, 50 or 150 μM of compound 1 and then processed for FACS by using Annexin V/propidium iodide staining. (B, C) Immunofluorescence staining analysis of EDU^+ and quantification of EDU^+ in SW620 cells treated with 0, 50 or 150 μM of compound 1. Stained graphs were observed through a fluorescence microscope (× 200 magnification). Bar = 20 μm. Data are shown as mean ± s.d. (n = 3). (D, E, F) Immunofluorescence staining analysis of 53BP1 and quantification of 53BP1 foci formation in SW620 treated for 24 h with 50 μM of compound 1. It was observed through a confocal microscope (× 400 magnification). Bar = 50 μm Data are shown as mean ± s.d. (n = 3). […]
Apoptotic cells were staining with Annexin-V-FITC and Propidium Iodide (PI) (Annexin V-FITC/PI double staining cell apoptosis detection kit) following the manufacturer's protocol. Fluorescence was recorded by flow cytometry using the FACSort (BD Bio sciences).

[2] = test system: human osteosarcoma cells (U2OS); experiment: CCK8 cytotoxicity assay, U2OS; assay type: cell-based; details: Homo sapiens, U2OS; CCK8, 48 h, carcinoma cell line
Description: (§1) The growth inhibitory effects of the isolated farnesyl phenolic compounds (1–8) against carcinoma cell lines [human osteosarcoma cells (U2OS), human colorectal carcinoma cells (SW620), human ES-2 ovarian carcinoma cells (ES-2)] and normal tissue cell lines [human hepatic cells (Lo2), African green monkey kidney vero cells (Vero)] were further investigated using CCK8 assay method (Table 3).
(§2) Carcinoma cell lines [human osteosarcoma cells (U2OS), human colorectal carcinoma cells (SW620), human ES-2 ovarian carcinoma cells (ES-2)] and normal tissue cell lines [human hepatic cells (Lo2), African green monkey kidney Vero cells (Vero)] The U2OS, SW620, ES-2, Lo2 and Vero were obtained from ATCC (Manassas, VA, USA). The SW620 and Vero cells were cultured in Roswell Park Memorial Institute medium (RPMI), with 10% fetal bovine serum (Hyclone) and 1% penicillin-streptomycin (Sigma). Lo2, U2OS and ES-2 cells were grown in Dulbecco's modified eagle medium (DMEM), with 10% fetal bovine serum (Hyclone) and 1% penicillin-streptomycin (Sigma). All of these cells were cultured at 37°C in a humidified atmosphere with 5% CO2. For CCK8 assay cytotoxicity evaluation of compounds, all cells were separately plated at a density of 1 × 10^4 cells/well in a 96 well plate. Cells were cultivated at 37°C in 5% CO2 atmosphere for 24 h, then medium in the wells was replaced with fresh medium containing compounds which were diluted in 8 dilution steps covering the range from 200 μM to 1.5625 μM. And DMSO was used as negative control. After 48 h incubation, 10 μL of CCK8 solution was added to each well. After 30 min, the optical density (OD) of each well was measured at wavelength of 450 nm on spectrophotometer. Data were corrected for background (no-cell control) and expressed as a percentage of the value for untreated cells. The IC50 values of the isolated compounds were derived from the mean OD values of the triplicate tests versus the drug concentration curves.

[3] = test system: human ES-2 ovarian carcinoma cells (ES-2); experiment: CCK8 cytotoxicity assay, ES-2; assay type: cell-based; details: Homo sapiens, Ovarian carcinoma cell; CCK8, 48 h, carcinoma cell line
Description: as §1, §2

With `CO[C@]1(c2cc(O)cc(O)c2)C=C(CCCC(CO)CC/C=C(\C)COC(=O)/C=C/c2ccc(O)cc2)C(=O)O1` (stereo partly drawn) [Compound 1, (5R)-3-{9-[(E)-coumaroyl]-4-hydroxymethyl-8-methyl-7-nonene}-5-(3,5-dihydroxyphenyl)-5-methoxy-2(5H)-furanone] the “growth inhibition of MTH1 siRNA (#2 and #3) vs non-targeting siRNA transfected cells” value [1] was “resistant to the growth inhibition”, the “SW620 cells apoptotic death” value (SW620 cells; 50 μM) was 45.09% and the “SW620 cells apoptotic death” value (SW620 cells; 150 μM) was 91.11%. The IC50 [2] was 111 ± 1.29 µM and the IC50 [3] was 55.5 ± 1.08 µM.
